Each structure is given as a SMILES string.

Results on ten compounds are retold here after patent publication US20250179047A1, “5-[7-(3,4-DIHYDRO-1H-ISOQUINOLINE-2-CARBONYL)-1,2,3,4 TETRAHYDROISOQUINOLIN-6-YL]-1H-PYRROLE-3-CARBOXAMIDE DERIVATIVES, PHARMACEUTICAL COMPOSITIONS CONTAINING THEM AND THEIR USES AS PRO-APOPTOTIC AGENTS” (LES LABORATOIRES SERVIER, priority 2022, published 2025).

The target in one test is BCLXL WT (Homo sapiens (Human), UniProt Q07817). As to the kind of experiment: TR-FRET competitive binding assay, BCLXL WT. The settings on record: for Ki: BCLXL WT, Ki determined from IC50, read-out: TR_FRET EKI BclxL; for TR_FRET EKI BCLxL/WT selectivty ratio: ratio Ki BCLxL / Ki BCL2 WT. Summed up:
(§1)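 Ki derived from IC50 (11-point dilution, 520/495 nm emission ratio) for displacing a fluorescein-labelled PUMA peptide (2 or 20 nM). Target was 0.5 nM E. coli-expressed Halo-tagged BCL2 (1-207) or BCLXL (2-196), terbium-labelled on Halo. Incubation 2 h at 23°C in pH 7.5 Hepes with 150 mM NaCl and 5% DMSO.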

Another test addresses BCL2 D103Y (Homo sapiens, UniProt P10415, D103Y). As to the kind of experiment: TR-FRET competitive binding assay, BCL2 D103Y. To be noted: Ki determined from IC50, read-out: TR_FRET EKI_Bcl2 D103Y. Summed up:
as §1
Background: In TR-FRET formats the signal depends on donor and acceptor labels being close together.

The subject of test [1] is BCL2 G101V. As to the kind of experiment: TR-FRET competitive binding assay, BCL2 G101V. The arrangement: species or system human. The settings on record: ratio Ki BCL2 G101V / Ki BCL2 WT. Summed up: as §1
Test [2] has as its target BCL2 G101V (Homo sapiens, UniProt P10415, G101V). As to the kind of experiment: TR-FRET competitive binding assay, BCL2 G101V. To be noted: BCL2 G101V; Ki determined from IC50; read-out: TR_FRET EKI_Bcl2 G101V. Summed up: as §1
For a further test, the system named is KMS-12-PE Bcl-2 WT. Description: In vitro cytotoxicity CellTiter-Glo 48 h, KMS-12-PE Bcl-2 WT. It counts as cell-based. To be noted: Homo sapiens, KMS-12-PE, C50 = concentration needed to reach 50% of the cellular viability. Summed up:
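KMS-12-PE myeloma cells lentivirally transduced with Bcl-2 WT or G101V (TagRFP-sorted), exposed to compound 11-point dose-response for 48 h at 37 °C, 5% CO2. Viability read by CellTiter-Glo ATP luminescence; C50 is the concentration giving 50% cellular viability.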

In another test the target is BCL2 WT (Homo sapiens (Human), UniProt P10415). As to the kind of experiment: TR-FRET competitive binding assay, BCL2 WT. To be noted: Ki determined from IC50, read-out: TR_FRET EKI_Bcl2 WT. Summed up:
as §1

BCLXL WT, sequence (Q07817 other isoform, or with tags, fused parts or gaps): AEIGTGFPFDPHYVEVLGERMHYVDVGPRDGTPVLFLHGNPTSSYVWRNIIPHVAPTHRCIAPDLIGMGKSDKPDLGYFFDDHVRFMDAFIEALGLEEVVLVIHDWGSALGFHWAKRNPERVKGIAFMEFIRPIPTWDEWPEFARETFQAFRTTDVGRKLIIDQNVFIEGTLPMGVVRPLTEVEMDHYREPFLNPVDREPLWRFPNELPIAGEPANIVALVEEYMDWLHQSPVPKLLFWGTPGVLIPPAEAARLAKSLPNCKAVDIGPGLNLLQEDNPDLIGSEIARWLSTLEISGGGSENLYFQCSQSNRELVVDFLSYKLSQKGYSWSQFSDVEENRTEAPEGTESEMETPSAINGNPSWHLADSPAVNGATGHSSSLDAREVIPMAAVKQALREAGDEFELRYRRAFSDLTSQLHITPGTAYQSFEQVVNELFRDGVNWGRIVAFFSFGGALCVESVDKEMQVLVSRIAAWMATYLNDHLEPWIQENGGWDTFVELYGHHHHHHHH

For orientation: IC50 means the concentration that gives 50% inhibition. On to `Cc1ccc(N(C(=O)c2cc(-c3cc4c(cc3C(=O)N3Cc5ccccc5C[C@H]3C)CN(C(=O)Cc3ccc(OCCN5CCOCC5)cc3F)CC4)n(C)c2C)c2ccccc2)cc1C#N` [Example 203, N-(3-cyano-4-methyl-phenyl)-5-[2-[2-[2-fluoro-4-(2-morpholinoethoxy)phenyl]acetyl]-7-[(3R)-3-methyl-3,4-dihydro-1H-isoquinoline-2-carbonyl]-3,4-dihydro-1H-isoquinolin-6-yl]-1,2-dimethyl-N-phenyl-pyrrole-3-carboxamide], for which the Ki on BCLXL WT was found to be 8.5 nM; on BCL2 D103Y, 0.06 nM; at BCL2 G101V [2] it was 0.5 nM; on BCL2 WT it was 0.02 nM. Besides, the “TR_FRET EKI BCLxL/WT selectivty ratio” value on BCLXL WT is given as 404.3. Moreover, the “TR_FRET EKI G101V/WT selectivty ratio” value in the test with BCL2 G101V [1] was determined as 23.3. For the same compound, the IC50 in the test on KMS-12-PE Bcl-2 WT is 0.0091 µM.

As to `Cc1ccc(N(C(=O)c2cc(-c3cc4c(cc3C(=O)N3Cc5ccccc5C[C@H]3C)CN(C(=O)Cc3ccc(OCCN5CCOCC5)cc3)CC4)n(C)c2C)c2ccccc2)cc1C#N` [Example 204, N-(3-cyano-4-methyl-phenyl)-1,2-dimethyl-5-[7-[(3R)-3-methyl-3,4-dihydro-1H-isoquinoline-2-carbonyl]-2-[2-[4-(2-morpholinoethoxy)phenyl]acetyl]-3,4-dihydro-1H-isoquinolin-6-yl]-N-phenyl-pyrrole-3-carboxamide], the Ki on BCLXL WT came to 9.6 nM; on BCL2 D103Y it was 0.17 nM; at BCL2 G101V [2], 1.9 nM; at BCL2 WT it was 0.06 nM. The “TR_FRET EKI BCLxL/WT selectivty ratio” value on BCLXL WT was 152.4. The “TR_FRET EKI G101V/WT selectivty ratio” value with BCL2 G101V [1] came out at 30.8. Also, in the test on KMS-12-PE Bcl-2 WT, the half-inhibitory concentration (IC50) was 0.0111 µM.

For `COC[C@@H]1Cc2ccccc2CN1C(=O)c1cc2c(cc1-c1cc(C(=O)N(c3ccccc3)c3cnn(C(F)F)c3)c(C)n1C)CCN(C(=O)Cc1ccc(OCCN3CCOCC3)cc1)C2` [Example 205, N-[1-(difluoromethyl)pyrazol-4-yl]-5-[7-[(3S)-3-(methoxymethyl)-3,4-dihydro-1H-isoquinoline-2-carbonyl]-2-[2-[4-(2-morpholinoethoxy)phenyl]acetyl]-3,4-dihydro-1H-isoquinolin-6-yl]-1,2-dimethyl-N-phenyl-pyrrole-3-carboxamide], the Ki was 20 nM on BCLXL WT, 0.19 nM on BCL2 D103Y, 7.4 nM on BCL2 G101V [2] and 0.07 nM at BCL2 WT. The “TR_FRET EKI BCLxL/WT selectivty ratio” value at BCLXL WT is 270.3. For the same compound, in the test with BCL2 G101V [1], the “TR_FRET EKI G101V/WT selectivty ratio” value worked out at 100.3. The compound further registered an IC50 in the test with KMS-12-PE Bcl-2 WT of 0.0126 µM.

Consider `Cc1c(C(=O)N(c2ccccc2)c2cnn(C(F)F)c2)cc(-c2cc3c(cc2C(=O)N2Cc4ccccc4C[C@H]2CN2CC4(CCC4)C2)CN(C(=O)Cc2ccc(OCCN4CCOCC4)cc2)CC3)n1C` [Example 206, 5-[7-[(3S)-3-(2-azaspiro[3.3]heptan-2-ylmethyl)-3,4-dihydro-1H-isoquinoline-2-carbonyl]-2-[2-[4-(2-morpholinoethoxy)phenyl]acetyl]-3,4-dihydro-1H-isoquinolin-6-yl]-N-[1-(difluoromethyl)pyrazol-4-yl]-1,2-dimethyl-N-phenyl-pyrrole-3-carboxamide], for which the Ki was determined as 107 nM on BCLXL WT, 0.09 nM on BCL2 D103Y, 4.5 nM on BCL2 G101V [2] and 0.014 nM at BCL2 WT. At BCLXL WT, the “TR_FRET EKI BCLxL/WT selectivty ratio” value was found to be 7642.9. Besides, the “TR_FRET EKI G101V/WT selectivty ratio” value in the test with BCL2 G101V [1] is 321.5. In the test on KMS-12-PE Bcl-2 WT, 0.047 µM corresponded to half-maximal inhibition (IC50).

For `Cc1c(C(=O)N(c2ccccc2)c2cnn(CCN(C)C)c2)cc(-c2cc3c(cc2C(=O)N2Cc4ccccc4C[C@H]2C)CN(C(=O)Cc2ccc(OCCC4CCOCC4)cc2)CC3)n1C` [Example 207, N-[l-[2-(dimethylamino)ethyl]pyrazol-4-yl]-1,2-dimethyl-5-[7-[(3R)-3-methyl-3,4-dihydro-1H-isoquinoline-2-carbonyl]-2-[2-[4-(2-tetrahydropyran-4-ylethoxy)phenyl]acetyl]-3,4-dihydro-1H-isoquinolin-6-yl]-N-phenyl-pyrrole-3-carboxamide], the Ki on BCLXL WT was 3 nM; on BCL2 D103Y, 0.04 nM; at BCL2 G101V [2], 1.4 nM; at BCL2 WT it was 0.02 nM. The “TR_FRET EKI BCLxL/WT selectivty ratio” value at BCLXL WT stood at 150.0. Also, the “TR_FRET EKI G101V/WT selectivty ratio” value in the test with BCL2 G101V [1] came to 68.8. In the test with KMS-12-PE Bcl-2 WT, this compound came in with a 50% inhibitory concentration (IC50) of 0.023 µM.

Regarding `Cc1c(C(=O)N(c2ccccc2)c2cnn(C)c2)cc(-c2cc3c(cc2C(=O)N2Cc4ccccc4C[C@H]2C)CN(C(=O)Cc2ccc(OCCN(C)C)cc2)CC3)n1C` [Example 208, 5-[2-[2-[4-[2-(dimethylamino)ethoxy]phenyl]acetyl]-7-[(3R)-3-methyl-3,4-dihydro-1H-isoquinoline-2-carbonyl]-3,4-dihydro-1H-isoquinolin-6-yl]-1,2-dimethyl-N-(1-methylpyrazol-4-yl)-N-phenyl-pyrrole-3-carboxamide], the Ki is 8.8 nM at BCLXL WT, 0.12 nM at BCL2 D103Y, 3.7 nM on BCL2 G101V [2] and 0.04 nM on BCL2 WT. Also, at BCLXL WT, the “TR_FRET EKI BCLxL/WT selectivty ratio” value was 200.0. Besides, the “TR_FRET EKI G101V/WT selectivty ratio” value with BCL2 G101V [1] is given as 83.8. Further, it took 0.0301 µM to reach half-maximal inhibition with KMS-12-PE Bcl-2 WT (IC50).

Take `COc1ccc(N(C(=O)c2cc(-c3cc4c(cc3C(=O)N3Cc5ccccc5C[C@H]3C)CN(C(=O)Cc3ccc(OCCN5CCOCC5)cc3)CC4)n(C)c2C)c2ccc(F)cc2)cc1C#N` [Example 209, N-(3-cyano-4-methoxy-phenyl)-N-(4-fluorophenyl)-1,2-dimethyl-5-[7-[(3R)-3-methyl-3,4-dihydro-1H-isoquinoline-2-carbonyl]-2-[2-[4-(2-morpholinoethoxy)phenyl]acetyl]-3,4-dihydro-1H-isoquinolin-6-yl]pyrrole-3-carboxamide]: the Ki on BCLXL WT is 23 nM; at BCL2 D103Y, 0.21 nM; at BCL2 G101V [2] it was 3.8 nM; at BCL2 WT, 0.08 nM. Besides, the “TR_FRET EKI BCLxL/WT selectivty ratio” value on BCLXL WT amounted to 291.1. Further, the “TR_FRET EKI G101V/WT selectivty ratio” value with BCL2 G101V [1] stood at 47.5. The compound also displayed an IC50 with KMS-12-PE Bcl-2 WT of 0.0486 µM.

Turning to `CCn1cc(N(C(=O)c2cc(-c3cc4c(cc3C(=O)N3Cc5ccccc5C[C@H]3C)CN(C(=O)Cc3ccc(OCCN5CCOCC5)cc3)CC4)n(C)c2C)c2ccccc2)c(C)n1` [Example 210, N-(1-ethyl-3-methyl-pyrazol-4-yl)-1,2-dimethyl-5-[7-[(3R)-3-methyl-3,4-dihydro-1H-isoquinoline-2-carbonyl]-2-[2-[4-(2-morpholinoethoxy)phenyl]acetyl]-3,4-dihydro-1H-isoquinolin-6-yl]-N-phenyl-pyrrole-3-carboxamide], the Ki at BCLXL WT is 29 nM; on BCL2 D103Y, 0.11 nM; on BCL2 G101V [2], 4.1 nM; on BCL2 WT it was 0.04 nM. Further, the “TR_FRET EKI BCLxL/WT selectivty ratio” value at BCLXL WT was 828.6. Further, the “TR_FRET EKI G101V/WT selectivty ratio” value in the test on BCL2 G101V [1] stood at 118.3. In the test with KMS-12-PE Bcl-2 WT, this compound registered a concentration for half-maximal inhibition (IC50) of 0.0395 µM.

Regarding `Cc1c(C(=O)N(c2ccccc2)c2cnn(C(F)F)c2)cc(-c2cc3c(cc2C(=O)N2Cc4ccccc4C[C@H]2CF)CN(C(=O)Cc2ccc(OCCN4CCOCC4)cc2)CC3)n1C` [Example 211, N-[1-(difluoromethyl)pyrazol-4-yl]-5-[7-[(3S)-3-(fluoromethyl)-3,4-dihydro-1H-isoquinoline-2-carbonyl]-2-[2-[4-(2-morpholinoethoxy)phenyl]acetyl]-3,4-dihydro-1H-isoquinolin-6-yl]-1,2-dimethyl-N-phenyl-pyrrole-3-carboxamide], the Ki at BCLXL WT turned out to be 26 nM; on BCL2 D103Y it was 0.18 nM; on BCL2 G101V [2] it was 5.3 nM; at BCL2 WT, 0.07 nM. The “TR_FRET EKI BCLxL/WT selectivty ratio” value on BCLXL WT is listed as 351.4. The “TR_FRET EKI G101V/WT selectivty ratio” value with BCL2 G101V [1] stood at 72.1. The concentration for half-maximal inhibition (IC50) in the test on KMS-12-PE Bcl-2 WT amounted to 0.0157 µM.

For `Cc1c(C(=O)N(c2ccccc2)c2cnn(C(F)F)c2)cc(-c2cc3c(cc2C(=O)N2Cc4ccccc4C[C@H]2C)CN(C(=O)Cc2ccc(C#CCN4CCOCC4)cc2)CC3)n1C` [Example 212, N-[1-(difluoromethyl)pyrazol-4-yl]-1,2-dimethyl-5-[7-[(3R)-3-methyl-3,4-dihydro-1H-isoquinoline-2-carbonyl]-2-[2-[4-(3-morpholinoprop-1-ynyl)phenyl]acetyl]-3,4-dihydro-1H-isoquinolin-6-yl]-N-phenyl-pyrrole-3-carboxamide], the Ki on BCLXL WT is 4.8 nM; on BCL2 D103Y it was 0.13 nM; at BCL2 G101V [2], 1.7 nM; on BCL2 WT, 0.05 nM. In addition, the “TR_FRET EKI BCLxL/WT selectivty ratio” value at BCLXL WT is given as 104.3. For the same compound, the “TR_FRET EKI G101V/WT selectivty ratio” value with BCL2 G101V [1] turned out to be 37.0. The same compound returned a 50% inhibitory concentration (IC50) in the test on KMS-12-PE Bcl-2 WT of 0.006 µM.
